Assay results taken from US10258612B2, “Mitochondrial lipid permeable iron chelators for treating and preventing ischemia/reperfusion (I/R) injury in the heart following an ischemic event” (Northwestern University, priority 2015, dated 2019).
“Also recorded” adds a separate entry of the source.

What was measured:
[1] = test system: wild-type mice subjected to I/R; assay: Ischemia/reperfusion (I/R) injury in chelator-pretreated wild-type mice; format: in vivo
Procedure: (§1) To test the use of these iron chelators in the setting of I/R, mice were pretreated for a week with these chelators and then subjected to I/R or sham operation. Chelation was continued for two weeks after the operation. […] To rule out any changes of serum iron hematopoiesis that can account for the cardiac functional difference, we performed complete blood counts and measured serum iron parameters in wild-type mice treated with iron chelators for 3 weeks.
(§2) Mice were treated with 80 mg/kg BPD (Sigma) in normal saline solution daily or 50 mg/kg DFO (Sigma) in normal saline every other day via intraperitoneal injection. The dose of BPD was chosen based on its ability to modulate cardiac mitochondrial iron, and the dose of DFO was chosen according to previously published studies (Ichikawa et al., 2014). BPD was prepared as a 400 mg/ml stock solution in ethanol and diluted 1:100 in normal saline to working concentration. DFO was prepared as a 250 mg/ml stock in water and diluted 1:100 in normal saline to working concentration.
The procedure was performed as described previously (Wu et al., 2011).
(§3) Parasternal short- and long-axis views of the heart were obtained using a Vevo 770 high-resolution imaging system with a 30 MHz scan head. 2D and M-mode images were obtained and analyzed. Ejection fraction was calculated from M mode image using Teichholtz equation, and fractional shortening was directly calculated from end-systolic and end-diastolic chamber size from M-mode images.
At the time of tissue harvest, heart was excised and rinsed in phosphate buffered saline to remove excess blood on tissue and in ventricles. Hearts were then submerged into OTC compound and frozen in liquid nitrogen. For hearts with I/R injury, sections were collected 500 μm below suture line to capture the injured region. Sections were stained with hematoxylin and eosin for evaluation of general cardiac morphology and tissue organization. Masson Trichrome staining were used to visualize cardiac fibrosis. Fibrosis was quantified from low power microscope images by dividing the arc length of fibrotic scar to the circumference of left ventricle.
H9c2 cardiomyoblasts were cultured in DMEM (ATCC) supplemented with 10% FBS (Thermo) and Penicillin/Streptomycin (Cellgro). HEK293T cells were cultured in MEM (Cellgro) supplemented with 10% FBS, sodium pyruvate (Cellgro) and Penicillin/Streptomycin. […] Purified RNA was then reverse transcribed with Random Hexamer and Oligo dT(16) (Applied Biosystems) and amplified on a 7500 Fast Real-Time PCR system using Fast SYBR Green PCR Master Mix (Applied Biosystems). mRNA levels were calculated based on the difference of threshold Ct values in target gene and average Ct values of 18s, Actb, B2m, and Hprt in the same sample.

[2] = Complete blood count and serum iron parameters in wild-type mice with chelator treatment; format: in vivo; conditions: iron chelators for 3 weeks, n = 5, mean±SEM
Procedure: as §1, §2

H9c2 cells [3] = assay: Mitochondrial ROS (mitoSox) in H9c2 cells after hydrogen peroxide treatment; format: cell-based, rat; conditions: chelator pretreatment
Procedure: (§4) H9c2 cardiomyoblasts were cultured in DMEM (ATCC) supplemented with 10% FBS (Thermo) and Penicillin/Streptomycin (Cellgro). HEK293T cells were cultured in MEM (Cellgro) supplemented with 10% FBS, sodium pyruvate (Cellgro) and Penicillin/Streptomycin. Unless otherwise specified, cells were treated with 200 μM of DFO or 100 μM of BPD for two hours when indicated prior to addition of 600 μM of H2O2 when indicated for 6 hours. RNA isolation and qRT-PCR RNA was isolated using RNA-STAT60 (Tel-Test) according to the manufacturer's instructions, and subjected to DNAse I (Ambion) digestion to remove residual DNA. Purified RNA was then reverse transcribed with Random Hexamer and Oligo dT(16) (Applied Biosystems) and amplified on a 7500 Fast Real-Time PCR system using Fast SYBR Green PCR Master Mix (Applied Biosystems). mRNA levels were calculated based on the difference of threshold Ct values in target gene and average Ct values of 18s, Actb, B2m, and Hprt in the same sample.
Mitochondrial ROS levels in intact cells were quantified using MitoSox Red (Life Technologies). Briefly, cells were loaded with MitoSox to stain for mitochondrial ROS and Hoechst 33342 for nuclei counter stain. Images were obtained on a Zeiss AxioObserver.Z1 microscope and analyzed with ImageJ software (NIH). MitoSox signal in the nuclei was subtracted to exclude localization of the dye to the nuclei.

H9c2 cells [4] = assay: Mitochondrial membrane potential (TMRE) in H9c2 cells; format: cell-based, rat; conditions: H2O2
Procedure: as §4
Cells were stained with 5 nM of TMRE (Life Technology) and counter stained with Hoechst 33342. Images were obtained on a Zeiss AxioObserver.Z1 microscope and analyzed with ImageJ software (NIH).

H9c2 cardiomyoblasts = assay: Mitochondrial labile (chelatable) iron by RPA fluorescence in H9c2 cells; format: cell-based, rat
Procedure: as §4
Tissue iron was measured colorimetrically by the formation of a complex with bathophenanthroline disulfonate or ferene-S as described previously (Ichikawa et al., 2012; Khechaduri et al., 2013). […] Quantitative measurement of labile iron was done according to previously described methods (Cabantchik et al., 1996; Petrat et al., 2002b). […]

wild-type mice = assay: Cardiac mitochondrial, cytosolic and nuclear non-heme iron in wild-type mice treated with iron chelator; format: in vivo; conditions: wild-type mice at baseline, one-week regimen, BPD 80 mg/kg per day, DFO 50 mg/kg every other day
Procedure: Mice were treated with 80 mg/kg BPD (Sigma) in normal saline solution daily or 50 mg/kg DFO (Sigma) in normal saline every other day via intraperitoneal injection. The dose of BPD was chosen based on its ability to modulate cardiac mitochondrial iron, and the dose of DFO was chosen according to previously published studies (Ichikawa et al., 2014). BPD was prepared as a 400 mg/ml stock solution in ethanol and diluted 1:100 in normal saline to working concentration. DFO was prepared as a 250 mg/ml stock in water and diluted 1:100 in normal saline to working concentration. […]
Tissue iron was measured colorimetrically by the formation of a complex with bathophenanthroline disulfonate or ferene-S as described previously (Ichikawa et al., 2012; Khechaduri et al., 2013). […] Quantitative measurement of labile iron was done according to previously described methods (Cabantchik et al., 1996; Petrat et al., 2002b). […] Fluorescence intensity was measured using Gemini XS plate reader (Molecular Device) with following excitation emission setting: ex/em 490 nm/520 nm for mitoTracker Green and calcein, 564 nm/601 nm for RPA, and 350 nm/461 nm for Hoechst 33342. After initial measurement, 2 mM of PIH (Abcam) was added to each well and fluorescence signal was measured again. […]

[5] = test system: mitochondrial aconitase, complex I, II and IV; assay: Mitochondrial enzyme and complex activities in H9c2 cells; format: cell-based, rat; conditions: chelator pre-treatment, then H2O2
Procedure: as §4
Mitochondria were isolated from cells as described above. Mitochondrial complex I, II and IV activity was measured as described previously (Spinazzi et al., 2012). Aconitase activity was measured using Aconitase Activity Microplate Assay Kit (Abcam). Citrate synthase activity was measured from the same sample using Citrate Synthase Activity Kit (BioVision) and was used to normalize the mitochondrial complex activity.

[6] = test system: cardiac-specific ABCB8 knockout mice; assay: Spontaneous cardiomyopathy in cardiac-specific ABCB8 knockout mice; format: in vivo
From the text: We next took a loss-of-function approach, and studied whether a decrease in mitochondrial iron in cardiac-specific ABCB8 knockout mice, a model of spontaneous cardiomyopathy with mitochondrial iron overload (Ichikawa et al., 2012), protects against cardiac tissue damage. […] Mitochondrial iron in ABCB8 flox/flox (LoxP sequence flanking exon one of both alleles of ABCB8) mice with or without the αMHC-MER-Cre-MER transgene was modulated with BPD or vehicle control for one week before the induction of ABCB8 deletion with tamoxifen. BPD treatment continued until four weeks after the completion of tamoxifen treatment, at which point mitochondrial iron and cardiac function were measured. The effectiveness of Cre-mediated gene excision was confirmed at the protein level (FIG. 15). […] These findings indicate that prevention of mitochondrial iron accumulation through a pharmacological approach delays the development of cardiomyopathy in an animal model of mitochondrial iron accumulation.
Cardiomyocyte-specific ABCB8 transgenic mice were generated as described previously (Ichikawa et al., 2014) and backcrossed for at least 8 generations. Mice with both alleles of ABCB8 floxed (ABCB8f/f) were crossed to α-MHC MER-Cre-MER mice, and the first generation is back-crossed with ABCB8f/f mice to generate ABCB8f/f mice with or without α-MHC MER-Cre-MER transgene. Tamoxifen-induced Cre translocation and deletion of ABCB8 in the heart was achieved using a previously described protocol (Ichikawa et al., 2012). All animal studies were approved by the Institutional Animal Care and Use Committee at Northwestern University and were performed in accordance with guidelines from the National Institutes of Health.
as §2, §3
Tissue iron was measured colorimetrically by the formation of a complex with bathophenanthroline disulfonate or ferene-S as described previously (Ichikawa et al., 2012; Khechaduri et al., 2013). For qualitative measurement of mitochondrial labile iron, cells were stained with Rhodamine B-[1,10-phenanthrolin-5-yl)-aminocarbonyl]benzyl ester (RPA) (Squarix) and mitoTracker Green (Invitrogen). Images were obtained on a Zeiss AxioObserver.Z1 microscope. Quantitative measurement of labile iron was done according to previously described methods (Cabantchik et al., 1996; Petrat et al., 2002b). Briefly, cells were stained with RPA and mitoTracker Green for mitochondrial labile iron measurement and calcein (Invitrogen) and Hoechst 33342 (Invitrogen) for cytosolic labile iron measurement. Fluorescence intensity was measured using Gemini XS plate reader (Molecular Device) with following excitation emission setting: ex/em 490 nm/520 nm for mitoTracker Green and calcein, 564 nm/601 nm for RPA, and 350 nm/461 nm for Hoechst 33342. After initial measurement, 2 mM of PIH (Abcam) was added to each well and fluorescence signal was measured again. […]

H9c2 cells [7] = assay: Cytosolic and nuclear iron in H9c2 cells preloaded with radioactive 55Fe; format: cell-based, rat; conditions: H9c2 cells preloaded with 55Fe
Procedure: as §4
For nuclear and cytosolic iron, cells were loaded with 280 nM of ^55Fe-NTA. Excess ^55Fe-NTA was washed off with cold PBS containing 200 μM DFO prior to chelator treatment. The nuclear and cytosolic fractions were isolated using NE-PER Nuclear and Cytoplasmic Extraction Reagents (Pierce) and the radioactivity was quantified with liquid scintillation.

H9c2 cells [8] = assay: H2O2-induced cell death in H9c2 cells; format: cell-based, rat; conditions: chelator pretreatment, then H2O2
Procedure: as §4
For in vitro studies, cells were resuspended in 1× Annexin V buffer (BD) and then stained with Alexa Fluor 350 conjugated Annexin V (Life Technology) and propidium iodide (Sigma) according to the manufacturer's instructions and analyzed on a LSRII flow cytometer (BD).

[9] = cited from earlier work

Structure (SMILES) | Hematocrit [2] [%] | Hemoglobin [2] [g/dL] | Iron Saturation [2] [%] | MCH [2] [pg] | MCHC [2] [g/dL] | MCV [2] [fL] | Platelet [2] | RBC [2] | RDW [2] [%] | Serum Iron [2] [µg/dL] | Total Iron Binding Capacity [2] [µg/dL] | Unsaturated Iron Binding Capacity [2] [µg/dL] | WBC [2] | log P [9] | also measured
c1ccc(-c2ccccn2)nc1 [BPD, 2,2′-bipyridyl] | 47.53 ± 1.84 | 13.12 ± 0.30 | 15.25 ± 0.81 | 12.38 ± 0.53 | 26.34 ± 1.21 | 47.02 ± 0.36 | 1007 ± 236.72 10^3/μL | 10.7 ± 0.62 10^6/μL | 17 ± 0.41 | 44.40 ± 2.24 | 291.42 ± 4.63 | 247.02 ± 4.93 | 5.70 ± 0.40 10^3/μL | 1.5 | cardiac remodeling (tissue fibrosis) after I/R ([1]; mice pretreated for a week, H&E and Masson Trichrome staining): less cardiac remodeling compared to either vehicle- or DFO-treated mice; cardiac function after I/R / protection against I/R injury ([1]; mice pretreated for a week, chelation continued for two weeks after operation): significantly preserved cardiac function after I/R; also recorded: protected mice against I/R injury; expression of Nppa, Nppb and Myh7 after I/R ([1]; mice pretreated for a week, subjected to I/R): attenuated the expression of Nppa, Nppb and Myh7; ROS production after I/R ([1]; mice pretreated with chelator): reduced ROS production; increase in mitochondrial ROS after hydrogen peroxide treatment (mitoSox) (H9c2 cells [3]): significantly attenuated; mitochondrial membrane potential after oxidative stress (H9c2 cells [4]): prevented the significant decrease of mitochondrial membrane potential after oxidative stress; increase in mitochondrial labile iron after H2O2 treatment (H9c2 cardiomyoblasts; chelator pretreatment, then 600 μM H2O2 for 6 hours): attenuated; chelatable / labile mitochondrial iron (H9c2 cardiomyoblasts; two-hour pretreatment, 200 μM DFO or 100 μM BPD, no H2O2): decreased mitochondrial labile iron; also recorded: significantly reduced chelatable mitochondrial iron; also recorded: significantly lowered chelatable mitochondrial iron; cardiac mitochondrial iron (wild-type mice): decreased cardiac mitochondrial iron; also recorded: decreased baseline mitochondrial iron; also recorded: lower mitochondrial iron; activities of mitochondrial aconitase, complex I, II and IV after H2O2 treatment [5]: protected the activities of mitochondrial aconitase, complex I, II and IV after H2O2 treatment; cardiac function in ABCB8 knockout mice ([6]; BPD from 1 week before deletion until 6 weeks after deletion, read at 6 weeks after deletion): preserved cardiac function; mitochondrial iron accumulation in ABCB8 KO mice ([6]; Cre+ (KO) mice, BPD from one week before tamoxifen until four weeks after tamoxifen): prevented the development of iron accumulation; mitochondrial iron in Cre- (WT) mice ([6]; Cre- (WT) mice, same BPD regimen): resulted in a decrease in mitochondrial iron; cardiotoxicity of the treatment itself ([6]; WT mice, same BPD regimen): not cardiotoxic; lipid peroxidation products in ABCB8 KO mice ([6]; chelator-treated ABCB8 KO mice): attenuated the increase; cardiac function (ejection fraction, fractional shortening) in ABCB8 KO mice ([6]; four weeks after completion of tamoxifen treatment): preserved cardiac function; expression of Nppa, Nppb and Myh7 in ABCB8 KO mice ([6]; four weeks after tamoxifen): attenuated expression of Nppa, Nppb and Myh7; cytosolic iron (H9c2 cells [7]): significant decreases; nuclear iron (H9c2 cells [7]): significant decreases; H2O2-induced cell death (H9c2 cells [8]): significantly reversed H2O2-induced cell death; also recorded: protected cells against H2O2 induced cell death
CC(=O)N(O)CCCCCNC(=O)CCC(=O)N(O)CCCCCNC(=O)CCC(=O)N(O)CCCCCN [DFO, deferoxamine] | 47.02 ± 2.25 | 12.96 ± 0.53 | 18.66 ± 1.68 | 13.28 ± 0.12 | 27.62 ± 0.32 | 48.1 ± 0.31 | 711.6 ± 139.86 10^3/μL | 9.77 ± 0.43 10^6/μL | 17 ± 0.32 | 53.37 ± 6.63 | 281.21 ± 12.76 | 227.85 ± 7.71 | 6.62 ± 0.85 10^3/μL | −0.614 | –
